Experimental data published in PubChem BioAssay (NCI).
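Cells were grown in 96-well plates and exposed to each compound for 48 hours at five concentrations; endpoints were interpolated linearly between bracketing concentrations, or set to the highest concentration if not reached. The concentration for 50% growth inhibition is given as GI50. Definition used: TGI = concentration required for complete inhibition of growth.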

Columns and labels:
Experiment in all cases: NCI tumour cell line growth inhibition, 48 h
SNB-75 CNS = tested on: SNB-75 CNS
SK-MEL-5 melanoma = tested on: SK-MEL-5 melanoma
RXF 393 renal = tested on: RXF 393 renal
T-47D breast = tested on: T-47D breast
SW-620 colon = tested on: SW-620 colon
IGROV1 ovarian = tested on: IGROV1 ovarian
OVCAR-4 ovarian = tested on: OVCAR-4 ovarian
OVCAR-8 ovarian = tested on: OVCAR-8 ovarian
SNB-19 CNS = tested on: SNB-19 CNS
BT-549 breast = tested on: BT-549 breast
SF-539 CNS = tested on: SF-539 CNS
786-0 renal = tested on: 786-0 renal
M14 melanoma = tested on: M14 melanoma
CCRF-CEM leukemia = tested on: CCRF-CEM leukemia
SK-MEL-28 melanoma = tested on: SK-MEL-28 melanoma
CAKI-1 renal = tested on: CAKI-1 renal
MDA-MB-231 breast = tested on: MDA-MB-231 breast
HCC-2998 colon = tested on: HCC-2998 colon
A549 NSCLC = tested on: A549 NSCLC
UACC-257 melanoma = tested on: UACC-257 melanoma
HOP-62 NSCLC = tested on: HOP-62 NSCLC
MALME-3M melanoma = tested on: MALME-3M melanoma
KM12 colon = tested on: KM12 colon
HL-60(TB) leukemia = tested on: HL-60(TB) leukemia
SF-295 CNS = tested on: SF-295 CNS
PC-3 prostate = tested on: PC-3 prostate
MDA-MB-435 = tested on: MDA-MB-435
NCI-H226 lung = tested on: NCI-H226 lung
OVCAR-5 ovarian = tested on: OVCAR-5 ovarian
DU-145 prostate = tested on: DU-145 prostate
SR leukemia = tested on: SR leukemia
ACHN renal = tested on: ACHN renal
K-562 leukemia = tested on: K-562 leukemia
EKVX NSCLC = tested on: EKVX NSCLC
HCT-15 colon = tested on: HCT-15 colon
LOX IMVI melanoma = tested on: LOX IMVI melanoma
UO-31 renal = tested on: UO-31 renal
UACC-62 melanoma = tested on: UACC-62 melanoma
HOP-92 NSCLC = tested on: HOP-92 NSCLC
HS 578T breast = tested on: HS 578T breast
HT29 colon = tested on: HT29 colon
U251 CNS = tested on: U251 CNS
A498 renal = tested on: A498 renal
SN12C renal = tested on: SN12C renal
SK-OV-3 ovarian = tested on: SK-OV-3 ovarian
NCI/ADR-RES ovarian = tested on: NCI/ADR-RES ovarian
NCI-H522 lung = tested on: NCI-H522 lung
SF-268 CNS = tested on: SF-268 CNS
NCI-H23 lung = tested on: NCI-H23 lung
MOLT-4 leukemia = tested on: MOLT-4 leukemia
MCF7 breast = tested on: MCF7 breast
HCT-116 colon = tested on: HCT-116 colon
OVCAR-3 ovarian = tested on: OVCAR-3 ovarian
COLO 205 colon = tested on: COLO 205 colon
RPMI-8226 leukemia = tested on: RPMI-8226 leukemia
SK-MEL-2 melanoma = tested on: SK-MEL-2 melanoma
NCI-H460 lung = tested on: NCI-H460 lung

In the case of O=C(Nc1ccc(Cl)cc1)c1cc(-c2ccc(Cl)cc2)c2sc(=O)[nH]c2n1, the GI50 (SNB-75 CNS) is reported as 1.7 µM, the TGI (SNB-75 CNS) is reported as 8.03 µM and the GI50 (SK-MEL-5 melanoma) is reported as 0.687 µM. The TGI (SK-MEL-5 melanoma) was 2.99 µM, the GI50 (RXF 393 renal) was 2.77 µM and the TGI (RXF 393 renal) was 7.42 µM. The GI50 (T-47D breast) was 0.584 µM, the TGI (T-47D breast) was 5.46 µM and the GI50 (SW-620 colon) was 2.9 µM. It also gave a TGI (SW-620 colon) of 15.2 µM, a GI50 (IGROV1 ovarian) of 2.83 µM and a TGI (IGROV1 ovarian) of 28.9 µM. The GI50 (OVCAR-4 ovarian) was 2.02 µM, the TGI (OVCAR-4 ovarian) was 9.98 µM and the GI50 (OVCAR-8 ovarian) was 2.04 µM. It also gave a TGI (OVCAR-8 ovarian) of 12.8 µM, a GI50 (SNB-19 CNS) of 3.64 µM and a TGI (SNB-19 CNS) greater than 100 µM. It also gave a GI50 (BT-549 breast) of 2.08 µM, a TGI (BT-549 breast) of 6.88 µM and a GI50 (SF-539 CNS) of 2.43 µM. The TGI (SF-539 CNS) was 11.6 µM, the GI50 (786-0 renal) was 2.64 µM and the TGI (786-0 renal) was 20.6 µM. For the same molecule, the GI50 (M14 melanoma) was 2.75 µM, the TGI (M14 melanoma) was 10.3 µM and the GI50 (CCRF-CEM leukemia) was 2.5 µM. The TGI (CCRF-CEM leukemia) was 40.3 µM, the GI50 (SK-MEL-28 melanoma) was 1.57 µM and the TGI (SK-MEL-28 melanoma) was 17.8 µM. For the same molecule, the GI50 (CAKI-1 renal) was 1.95 µM, the TGI (CAKI-1 renal) was 13.1 µM and the GI50 (MDA-MB-231 breast) was 1.66 µM. The TGI (MDA-MB-231 breast) was 3.56 µM, the GI50 (HCC-2998 colon) was 2.17 µM and the TGI (HCC-2998 colon) was 14.5 µM. It also gave a GI50 (A549 NSCLC) of 2.49 µM, a TGI (A549 NSCLC) of 12.7 µM and a GI50 (UACC-257 melanoma) of 1.19 µM. The TGI (UACC-257 melanoma) was 4.69 µM, the GI50 (HOP-62 NSCLC) was 2.58 µM and the TGI (HOP-62 NSCLC) was 8.85 µM. It also gave a GI50 (MALME-3M melanoma) of 2.31 µM, a TGI (MALME-3M melanoma) of 6.25 µM and a GI50 (KM12 colon) of 1.58 µM. The TGI (KM12 colon) was 10.3 µM, the GI50 (HL-60(TB) leukemia) was 1.27 µM and the TGI (HL-60(TB) leukemia) was 6.68 µM. For the same molecule, the GI50 (SF-295 CNS) was 1.56 µM, the TGI (SF-295 CNS) was 4.37 µM and the GI50 (PC-3 prostate) was 1.66 µM. The TGI (PC-3 prostate) was 12.2 µM, the GI50 (MDA-MB-435) was 2.7 µM and the TGI (MDA-MB-435) was 11.2 µM. It also gave a GI50 (NCI-H226 lung) of 2.26 µM, a TGI (NCI-H226 lung) of 9.18 µM and a GI50 (OVCAR-5 ovarian) of 3.41 µM. The TGI (OVCAR-5 ovarian) was 29.3 µM, the GI50 (DU-145 prostate) was 3.31 µM and the TGI (DU-145 prostate) was 26.5 µM. The GI50 (SR leukemia) was 3.63 µM, the TGI (SR leukemia) was greater than 100 µM and the GI50 (ACHN renal) was 2.27 µM. For the same molecule, the TGI (ACHN renal) was 8.89 µM, the GI50 (K-562 leukemia) was 1.27 µM and the TGI (K-562 leukemia) was greater than 100 µM. For the same molecule, the GI50 (EKVX NSCLC) was 1.63 µM, the TGI (EKVX NSCLC) was 11.7 µM and the GI50 (HCT-15 colon) was 1.27 µM. It also gave a TGI (HCT-15 colon) of 9.54 µM, a GI50 (LOX IMVI melanoma) of 2.88 µM and a TGI (LOX IMVI melanoma) of 10.6 µM. For the same molecule, the GI50 (UO-31 renal) was 1.59 µM, the TGI (UO-31 renal) was 5.36 µM and the GI50 (UACC-62 melanoma) was 1.04 µM. The TGI (UACC-62 melanoma) was 4.91 µM, the GI50 (HOP-92 NSCLC) was 0.526 µM and the TGI (HOP-92 NSCLC) was 3.94 µM. It also gave a GI50 (HS 578T breast) of 3.04 µM, a TGI (HS 578T breast) of 21.5 µM and a GI50 (HT29 colon) of 2.13 µM. For the same molecule, the TGI (HT29 colon) was 6.29 µM, the GI50 (U251 CNS) was 1.88 µM and the TGI (U251 CNS) was 11.8 µM. It also gave a GI50 (A498 renal) of 0.472 µM, a TGI (A498 renal) of 3.42 µM and a GI50 (SN12C renal) of 2.12 µM. The TGI (SN12C renal) was 20.1 µM, the GI50 (SK-OV-3 ovarian) was 2.08 µM and the TGI (SK-OV-3 ovarian) was 7.47 µM. The GI50 (NCI/ADR-RES ovarian) was 1.98 µM, the TGI (NCI/ADR-RES ovarian) was 7.61 µM and the GI50 (NCI-H522 lung) was 0.408 µM. For the same molecule, the TGI (NCI-H522 lung) was 3.12 µM, the GI50 (SF-268 CNS) was 2.56 µM and the TGI (SF-268 CNS) was 22.3 µM. For the same molecule, the GI50 (NCI-H23 lung) was 1.24 µM, the TGI (NCI-H23 lung) was 6.85 µM and the GI50 (MOLT-4 leukemia) was 2.52 µM. It also gave a TGI (MOLT-4 leukemia) of 11.8 µM, a GI50 (MCF7 breast) of 1.78 µM and a TGI (MCF7 breast) of 9.26 µM. For the same molecule, the GI50 (HCT-116 colon) was 2.4 µM, the TGI (HCT-116 colon) was 10.8 µM and the GI50 (OVCAR-3 ovarian) was 2.32 µM. It also gave a TGI (OVCAR-3 ovarian) of 7.45 µM, a GI50 (COLO 205 colon) of 1.63 µM and a TGI (COLO 205 colon) of 3.54 µM. For the same molecule, the GI50 (RPMI-8226 leukemia) was 1.21 µM, the TGI (RPMI-8226 leukemia) was 14.2 µM and the GI50 (SK-MEL-2 melanoma) was 1.18 µM. For the same molecule, the TGI (SK-MEL-2 melanoma) was 3.99 µM, the GI50 (NCI-H460 lung) was 2.19 µM and the TGI (NCI-H460 lung) was 12.6 µM.
